molecular target: T1, Human VPS34 (Homo sapiens, UniProt Q8NEB9); experiment: Human VPS34 Enzyme Assay (Adapta TR-FRET); format: biochemical; details: compound at 1.111 μM; read-out: Average VPS34 % INH @ 1.111 μM
T1 construct: GST (N); host or cells: SF9 insect cells (baculovirus)
Method: VPS34 (accession number GB:BC033004) was cloned into pDEST20-Thombin as N-terminal GST tagged fusion proteins using the Gateway system (Invitrogen, catalog#11804-013). The sequences were verified before recombinant protein expression using the Baculovirus Expression System with Gateway® Technology.
For expression VPS34 was infected at 1MOI in SF9 cells and harvested 72 hours post infection.
For purification, VPS34 is purified by Glutathione Sepharose 4 Fast Flow (GE Healthcare #17-5132-03) followed by HiTrap Q (GE Healthcare #17-1153-01).
Human VPS34 Enzyme Assay Method
100 nL compounds in DMSO are added to wells of a 384 well microtitre plate (Greiner 780076). At room temperature: 5 ul VPS34 reaction buffer (Invitrogen Assay Buffer Q (diluted 1 in 5 with nanopure water) plus 2 mM DTT and 2 mM MnCl2) containing ATP (20 uM, Promega) and 200 uM PI-PS substrate (Invitrogen PV5122) is added followed immediately by 5 ul VPS34 reaction buffer (as above) containing VPS34 (5 nM, Millennium Protein Sciences Group) and the mixture is incubated with shaking at room temperature for 1 hour. Then 5 ul VPS34 stop-detect mix (as per Invitrogen Adapta Assay kit (PV5009) instructions (contains kinase quench buffer, TR-FRET buffer, Adapta Eu anti-ADP antibody and Alexa Fluor 647 ADP tracer)) is added to quench the reaction. The plates are then incubated for 30 minutes at room temperature with shaking and then read on a BMG PheraStar Plus reader.
3) VPS34 is assayed using Adapta™ Universal Kinase Assay Kit (Invitrogen).

T1 sequence (Q8NEB9 whole entry): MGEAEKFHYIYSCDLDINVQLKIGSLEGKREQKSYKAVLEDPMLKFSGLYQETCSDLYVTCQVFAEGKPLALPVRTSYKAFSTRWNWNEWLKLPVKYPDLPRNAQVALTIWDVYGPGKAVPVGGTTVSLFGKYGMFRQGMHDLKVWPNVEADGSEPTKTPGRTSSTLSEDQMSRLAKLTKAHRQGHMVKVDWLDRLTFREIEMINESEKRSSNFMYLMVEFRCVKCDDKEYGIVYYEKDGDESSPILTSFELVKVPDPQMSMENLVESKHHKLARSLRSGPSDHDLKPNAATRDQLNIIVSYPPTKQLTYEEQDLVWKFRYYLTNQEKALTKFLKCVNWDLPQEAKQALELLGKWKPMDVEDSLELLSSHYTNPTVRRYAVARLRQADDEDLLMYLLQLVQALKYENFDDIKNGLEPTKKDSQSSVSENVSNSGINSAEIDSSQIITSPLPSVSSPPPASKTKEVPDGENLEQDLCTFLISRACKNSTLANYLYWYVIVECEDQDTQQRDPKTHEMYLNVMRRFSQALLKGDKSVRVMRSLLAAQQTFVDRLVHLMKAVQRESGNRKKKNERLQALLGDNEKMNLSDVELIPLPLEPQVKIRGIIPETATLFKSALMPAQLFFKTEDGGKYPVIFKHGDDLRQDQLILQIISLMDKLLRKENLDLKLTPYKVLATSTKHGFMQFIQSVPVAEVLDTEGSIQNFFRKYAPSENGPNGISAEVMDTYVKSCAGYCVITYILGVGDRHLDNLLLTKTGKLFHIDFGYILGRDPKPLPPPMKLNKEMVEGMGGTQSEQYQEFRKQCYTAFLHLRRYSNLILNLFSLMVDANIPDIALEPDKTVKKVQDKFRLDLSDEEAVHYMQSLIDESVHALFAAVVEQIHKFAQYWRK

SMILES	inhibition at 1.111 µM
COCCNC(=O)c1nc(-c2cc(NC(C)=O)ncc2C)oc1-c1ccccc1Cl [Compound I-64, 2-(2-acetamido-5-methylpyridin-4-yl)-5-(2-chlorophenyl)-N-(2-methoxyethyl)-1,3-oxazole-4-carboxamide]	64%
CC(C)CC(=O)Nc1cc(-c2nc(-c3nnc[nH]3)c(-c3ccccc3Cl)o2)ccn1 [Compound I-65, N-{4-[5-(2-chlorophenyl)-4-(4H-1,2,4-triazol-3-yl)-1,3-oxazol-2-yl]pyridin-2-yl}-3-methylbutanamide]	21%
O=C(Cc1ccccc1)Nc1cc(-c2nc(-c3nnc[nH]3)c(-c3ccccc3Cl)o2)ccn1 [Compound I-67, N-{4-[5-(2-chlorophenyl)-4-(4H-1,2,4-triazol-3-yl)-1,3-oxazol-2-yl]pyridin-2-yl}-2-phenylacetamide]	39%
CC(=O)Nc1cc(-c2cc(C(=O)NCc3cccnc3)c(-c3ccccc3Cl)o2)c(C)cn1 [Compound I-68, 5-(2-acetamido-5-methylpyridin-4-yl)-2-(2-chlorophenyl)-N-(pyridin-3-ylmethyl)-3-furamide]	104%
CC(=O)Nc1cc(-c2cc(-c3ncco3)c(-c3ccccc3Cl)o2)c(C)cn1 [Compound I-69, N-{4-[5-(2-chlorophenyl)-4-(1,3-oxazol-2-yl)-2-furyl]-5-methylpyridin-2-yl}acetamide]	144%
CC(=O)Nc1cc(-c2nc(C(=O)NCCn3ccnc3)c(-c3ccccc3Cl)o2)c(C)cn1 [Compound I-70, 2-(2-acetamido-5-methylpyridin-4-yl)-5-(2-chlorophenyl)-N-[2-(1H-imidazol-1-yl)ethyl]-1,3-oxazole-4-carboxamide]	45%
Clc1ccccc1-c1oc(-c2ccnc3[nH]ccc23)nc1-c1nnc[nH]1 [Compound I-71, 4-[5-(2-chlorophenyl)-4-(4H-1,2,4-triazol-3-yl)-1,3-oxazol-2-yl]-1H-pyrrolo[2,3-b]pyridine]	87%
CC(=O)Nc1cc(-c2cc(C(=O)NC(C)C)c(-c3ccccc3Cl)o2)c(C)cn1 [Compound I-72, 5-(2-acetamido-5-methylpyridin-4-yl)-2-(2-chlorophenyl)-N-isopropyl-3-furamide]	78%
CC(=O)Nc1cc(-c2nc(C(=O)N(C)C)c(-c3ccccc3Cl)o2)c(C)cn1 [Compound I-73, 2-(2-acetamido-5-methylpyridin-4-yl)-5-(2-chlorophenyl)-N,N-dimethyl-1,3-oxazole-4-carboxamide]	115%
CC(=O)Nc1cc(-c2nc(C(=O)NC3CCC3)c(-c3ccccc3Cl)o2)c(C)cn1 [Compound I-74, 2-(2-acetamido-5-methylpyridin-4-yl)-5-(2-chlorophenyl)-N-cyclobutyl-1,3-oxazole-4-carboxamide]	28%
CCC(=O)Nc1cc(-c2nc(-c3nnc[nH]3)c(-c3ccccc3Cl)o2)ccn1 [Compound I-75, N-{4-[5-(2-chlorophenyl)-4-(4H-1,2,4-triazol-3-yl)-1,3-oxazol-2-yl]pyridin-2-yl}propanamide]	114%
CCCC(=O)Nc1cc(-c2nc(-c3nnc[nH]3)c(-c3ccccc3Cl)o2)ccn1 [Compound I-76, N-{4-[5-(2-chlorophenyl)-4-(4H-1,2,4-triazol-3-yl)-1,3-oxazol-2-yl]pyridin-2-yl}butanamide]	79%
Cc1cnc(NC(=O)C2CC2)cc1-c1nc(-c2nnc[nH]2)c(-c2ccccc2Cl)o1 [Compound I-77, N-{4-[5-(2-chlorophenyl)-4-(4H-1,2,4-triazol-3-yl)-1,3-oxazol-2-yl]-5-methylpyridin-2-yl}cyclopropanecarboxamide]	120%
CC(=O)Nc1cc(-c2nc(-c3ccccc3Cl)c(-c3ccccn3)o2)c(C)cn1 [Compound I-78, N-{4-[4-(2-chlorophenyl)-5-(pyridin-2-yl)-1,3-oxazol-2-yl]-5-methylpyridin-2-yl}acetamide]	43%
CC(=O)Nc1cc(-c2nc(N3CCCC(N(C)C)C3)c(-c3nnc[nH]3)o2)c(C)cn1 (stereo not drawn) [Compound I-79, N-(4-{4-[3-(dimethylamino)piperidin-1-yl]-5-(4H-1,2,4-triazol-3-yl)-1,3-oxazol-2-yl}-5-methylpyridin-2-yl)acetamide]	82%
CC(=O)Nc1cc(-c2cc(C(=O)NCCC(C)C)c(-c3ccccc3Cl)o2)c(C)cn1 [Compound I-80, 5-(2-acetamido-5-methylpyridin-4-yl)-2-(2-chlorophenyl)-N-(3-methylbutyl)-3-furamide]	92%
CCNC(=O)c1cc(-c2cc(NC(C)=O)ncc2C)oc1-c1ccccc1Cl [Compound I-81, 5-(2-acetamido-5-methylpyridin-4-yl)-2-(2-chlorophenyl)-N-ethyl-3-furamide]	112%
CC(=O)Nc1cc(-c2nc(C(=O)NCCc3cn4ccccc4n3)c(-c3ccccc3Cl)o2)c(C)cn1 [Compound I-82, 2-(2-acetamido-5-methylpyridin-4-yl)-5-(2-chlorophenyl)-N-[2-(imidazo[1,2-a]pyridin-2-yl)ethyl]-1,3-oxazole-4-carboxamide]	68%
CC(=O)Nc1cc(-c2cc(C(N)=O)c(-c3ccccc3Cl)o2)c(C)cn1 [Compound I-83, 5-(2-acetamido-5-methylpyridin-4-yl)-2-(2-chlorophenyl)-3-furamide]	130%
CC(=O)Nc1cc(-c2cc(C(=O)NCCCN3CCCC3)c(-c3ccccc3Cl)o2)c(C)cn1 [Compound I-84, 5-(2-acetamido-5-methylpyridin-4-yl)-2-(2-chlorophenyl)-N-[3-(pyrrolidin-1-yl)propyl]-3-furamide]	54%
CC(=O)Nc1cc(-c2cc(C(=O)NCc3ccc(N(C)C)cc3)c(-c3ccccc3Cl)o2)c(C)cn1 [Compound I-85, 5-(2-acetamido-5-methylpyridin-4-yl)-2-(2-chlorophenyl)-N-[4-(dimethylamino)benzyl]-3-furamide]	56%
Cc1cnc(NC(=O)C2CC2)cc1-c1nc(C(N)=O)c(-c2ccccc2Cl)o1 [Compound I-86, 5-(2-chlorophenyl)-2-{2-[(cyclopropylcarbonyl)amino]-5-methylpyridin-4-yl}-1,3-oxazole-4-carboxamide]	117%
COCC(=O)Nc1cc(-c2nc(-c3nnc[nH]3)c(-c3ccccc3Cl)o2)ccn1 [Compound I-87, N-{4-[5-(2-chlorophenyl)-4-(4H-1,2,4-triazol-3-yl)-1,3-oxazol-2-yl]pyridin-2-yl}-2-methoxyacetamide]	109%
CC(=O)Nc1cc(-c2cc(C(=O)NCc3ccco3)c(-c3ccccc3Cl)o2)c(C)cn1 [Compound I-88, 5-(2-acetamido-5-methylpyridin-4-yl)-2-(2-chlorophenyl)-N-(2-furylmethyl)-3-furamide]	114%

From patent US8859768B2, “Heteroaryls and uses thereof” (Millennium Pharmaceuticals, Inc., priority 2010, dated 2014)
